# US8633324B2, “Denibulin di-hydrochloride” (Medicinova, Inc., priority 2011, dated 2014)
# Where a name gives a salt, the structure may show the parent alone. Read-outs that look alike come from different tables or passages of the source.
# Legend:
# Format in all cases: physicochemical
# [1] = Solubility as a function of pH in buffers without and with 15% HPBCD; details: thermodynamic from solid
# Method: Buffers were prepared to cover a pH range of 2 to 7. Approximately 5 to 10 milligrams of drug was weighed into an HPLC vial to which 1.00 mL of the appropriate buffer was added. The solutions were vortexed briefly and were then shaken for five days on an orbital shaker. The prolonged shaking was carried out because slow equilibration had been observed during the initial formulation studies with different salt forms of MN-029.
# Buffers with 15% HPBCD were prepared from the previous buffers. One and a half grams of HPBCD was weighed into each of several 10 mL volumetric flasks. HPBCD was dissolved in and diluted to volume with the appropriate buffer. 15 to 20 milligrams of MN-029 di-hydrochloride was weighed out into an tared HPLC vial. To the di-hydrochloride salt was added 1.00 mL of each buffer and the solution was vortexed briefly to dissolve the salt. The solutions were placed on an orbital shaker for five days. Solubility results are shown in Table 10, and the pH solubility profile for the drug in the absence of HPBCD is shown in FIG. 8.
# [2] = Aqueous solubility, 24 hours equilibration in water at 25° C., HPLC, pH and XRPD of residue; details: water
# Method: Briefly, quantitative high performance liquid chromatography (HPLC) was used to determine the aqueous solubility. X-ray powder diffraction spectrometry was also used to characterize the thermodynamic solubility of the mono-hydrochloride and di-hydrochloride salts of MN-029. After a 24 hours equilibration of each salt form in water at 25° C., the residual solid material was separated from the aqueous solution and the pH of the aqueous sample was measured. The XRPD spectrum of the solid residue obtained from the MN-029 di-hydrochloride vial indicated the solid material to be the mono-hydrochloride salt of MN-029. […] Table 4 illustrates the data from aqueous solubility studies of the mono-hydrochloride and di-hydrochloride salts of MN-029.
# The suspension was equilibrated at 25° C. for 24 hours then pH was measured. The suspension was filtered and the filtrate was diluted by a factor of 101. Quantization by HPLC with a reference to a standard solution. Different volumes of the standard, diluted, and undiluted solution were injected and solubility was calculated by integration of the peak found at the same time as the principle peak in the standard solution.
# [3] = Solubility in citrate buffer at different pH values (1M sodium hydroxide added), HPLC; details: for solubility: aqueous buffer, thermodynamic from solid, read-out: Solubility (free base equivalent)
# Method: To investigate the solubility of MN-029 di-hydrochloride in citrate buffer, the di-hydrochloride salt was added in multiple small portions to 10 milliliters of an aqueous solution of citric acid (3.87 mg/ml). When no more solid dissolved, that is, when saturation was achieved, the solution in the vial was allowed to equilibrate for approximately 24 hours with shaking at 25° C. […] The pH of the saturated solution was measured prior to filtration of undissolved solid. The filtrate obtained was equally divided into five vials.
# To the filtrate in each of the vials was added different volumes of 1M sodium hydroxide so as to increase the pH of the filtrate to a predetermined pH value. It was observed that the addition of base caused solid to precipitate out of solution. The reaction mixture is allowed to equilibrate with shaking at 25° C., following which the solid residue is filtered and the filtrate obtained is analyzed for presence of dissolved compound by HPLC.
# [4] = Gravimetric Vapor Sorption (GVS) hygroscopicity; details: for Weight change: GVS
# From the text: Moreover, neither the mono-hydrochloride salt or the di-hydrochloride salt of MN-029 show any significant change in phase as measured by XRPD analysis of samples subjected to GVS analysis (see FIG. 6).
# [5] = Solubility of MN-029 di-hydrochloride in aqueous citric acid; details: aqueous citric acid (4.75 mg/ml), 25° C., 12 hours shaking
# From the text: Without being held to any particular theory, the present inventor believes that the enhanced solubility of the di-hydrochloride salt is enhanced by the lower pH of the resulting solution. That is, the reduced pH of a solution of the di-hydrochloride of MN-029 improves its aqueous solubility. To test this theory, the present inventor measured the solubility of MN-029 di-hydrochloride in aqueous citric acid and in citrate buffers at different pH values. Two samples of the di-hydrochloride salt in aqueous citric acid were prepared by adding 10 ml of an aqueous citric acid solution to 36.9 mg and 74.5 mg of MN-029 di-hydrochloride salt in a vial.
# After equilibration with shaking at 25° C. for 12 hours, visual inspection of the solution in each vial indicated a clear colorless solution with no solid residue. Accordingly, the solubility MN-029 di-hydrochloride in aqueous citric acid (4.75 mg/ml) was calculated to exceed […] of the di-hydrochloride per milliliter of aqueous citric acid.
# [6] = Log P, Log Pion, Log D by potentiometric titration (Sirius GlpKa, octanol:water); details: octanol:ionic-strength adjusted water
# From the text: Most drugs have an ideal log P value and any deviation from this idealized value results in reduced absorption, slow transport of drug to the site of action and consequently, a decrease in biological activity. Table 8, illustrates the predicted and measured values for partition coefficients of MN-029 di-hydrochloride. The data was collected by potentiometric titration using a Sirius GlpKa instrument using three ratios of octanol:ionic-strength adjusted water to generate Log P, Log Pion and Log D values and the raw data was analyzed using Refinement Pro Software V.1.0. The predicted value of Log P was obtained using ACD V. software and Syracuse KOWWIN V.1.67 softwares.
# [7] = 25° C., equilibration for 24 hours
compound,measurement,setting,value
"COC(=O)Nc1nc2ccc(Sc3ccc(NC(=O)[C@H](C)N)cc3)cc2[nH]1 [MN-029 di-hydrochloride, carbamic acid N-[6-[[4-[[(2S)-2-amino-1-oxopropyl]amino]phenyl]thio]-1H-benzimidazol-2-yl]-methyl ester di-hydrochloride]",solubility at 5 days,"[1]; aqueous buffer with 15% HPBCD, aqueous with cosolvent or surfactant or cyclodextrin, pH 2 to pH 6.9, in the presence of 15% HPBCD, read-out: solubility across the tested pH range",> 20000 µg/mL
same,solubility at 5 days,"[1]; aqueous buffer, pH 2, aqueous buffer, Without HPBCD, buffer pH 2.0, final pH 2.10, five days shaking, read-out: MN-029 Solubility",~6000 µg/mL
same,fold more soluble in water than the mono-hydrochloride salt,[2],at least 3 fold
same,Concentration of filtrate,[2]; [7],2.1 mg/ml of free base
same,pH of saturated solution,[2]; [7],1.03
same,fold less soluble at pH of about 5.5 than at pH of about 1.0,[3],approximately 3000 fold
same,solubility,"[3]; pH 0.96, 25° C.",2900 µg/mL
same,solubility,"[3]; pH 2.03, 25° C.",1600 µg/mL
same,solubility,"[3]; pH 3.23, 25° C.",39 µg/mL
same,solubility,"[3]; pH 5.57, 25° C.",< 1 µg/mL
same,Weight change,[4]; 0% RH to 40% RH,+0.56 % w/w
same,Weight change,"[4]; 40% RH to 90% RH, listed as A063886, di-hydrochloride",Reversible uptake of +0.86% w/w
same,Weight change,"[4]; 40% RH to 90% RH, listed as MN029*2HCl, di-hydrochloride",+0.86 % w/w
same,Weight change,[4]; 90% RH to 0% RH,−1.45 % w/w
same,XRPD of residue after GVS,[4]; sample subjected to GVS,No significant difference
same,solubility in aqueous citric acid,[5],exceed 7.54 mg of the di-hydrochloride per milliliter of aqueous citric acid
same,Measured LogPion(cation),[6],0.93
same,Measured LogD7.4,[6]; pH 7.4,2.10
same,logD,"[6]; pH 7.4, read-out: Measured LogD7.4",2.1
same,logP,[6]; read-out: Measured LogP,2.64
